Source: US20050112033A1, “Multi-well containers, systems, and methods of using the same” (IRM, LLC, priority 2003, published 2005)

How the values were obtained:
[1] = Equilibrium dialysis plasma protein binding in a multi-well container; assay type: in vitro ADME; settings: human plasma vs buffer, 37° C. with gentle shaking, LC/MS detection
Description: This example illustrates equilibrium dialysis assays that were performed in a multi-well container of the invention to measure small molecule drug binding to plasma proteins. The assays included filling one well of a pair of wells that communicated via a chamber having a membrane disposed therein with human plasma and the other well of the pair with buffer. The assay included filling multiple pairs of wells in this manner. Each of the small molecules was dispensed into different wells containing plasma. The entire multi-well container was then heated at 37° C. with gentle shaking. […] Binding percentages were determined following detection using liquid chromatography/mass spectrometry.

[2] = literature value; cited from earlier work

SMILES	Human plasma binding percentage obtained in a multi-well container of the invention [1] [%]	Plasma binding percentage stated in the literature [2] [%]
Cc1c(O)cccc1C(=O)N[C@@H](CSc1ccccc1)[C@H](O)CN1C[C@H]2CCCC[C@H]2C[C@H]1C(=O)NC(C)(C)C [Nelfinavir]	>99	>98
CCCCNC(=O)NS(=O)(=O)c1ccc(C)cc1 [Tolbutamide]		96
Cn1c(=O)c2[nH]cnc2n(C)c1=O [Theophylline]		56
CC(C)NCC(O)COc1cccc2ccccc12 (stereo not shown) [Propranolol]	91	93
CN(C)CCCN1c2ccccc2CCc2ccccc21 [Imipramine]	95	95
COc1cc(Cc2cnc(N)nc2N)cc(OC)c1OC [Trimethoprim]	65	44
